Key:
[1] = test system: C1R-A3 targets for lysis by VMM18 CTL; assay: CTL epitope reconstitution assay (four-hour 51Cr-release); format: cell-based; settings: active at concentrations as low as
Description: VMM18-specific CTL have been described previously (Skipper et al., 1996, J Immunol 157, 5027-5033). CTL were expanded in bulk culture using anti-CD3 antibody (Greenberg and Cheever, 1985, Surv Immunol Res 4, 283-296) and cryopreserved in aliquots of 1-5×10^7 cells for use in epitope reconstitution assays.
Aliquots of each RP-HPLC fraction were tested for the presence of peptides that could sensitize C1R-A3 targets for lysis by VMM18 CTL in standard four-hour 51Cr-release assays as previously described (Hogan et al., 1998, Cancer Res 58, 5144-5150).

[2] = target: T1, class I MHC molecule, HLA-A3 (Homo sapiens, UniProt P04439); assay: Isolation of HLA-A3 associated peptides (immunoaffinity purification from VMM18 tumor cells); format: binding
T1 construct: endogenous in cells; host or cells: VMM18 melanoma tumor cells
Description: Immunoaffinity purification of class I MHC molecules from aliquots of 6-8×10^10 VMM18 tumor cells was performed as described (Hogan et al., 1998, Cancer Res 58, 5144-5150), except that the HLA-A3-specific monoclonal antibody GAP-A3, bound to protein A-Sepharose, was used to isolate the HLA-A3 molecules.
Peptide extracts were fractionated by RP-HPLC using an Applied Biosystems model 140B system. The extracts were concentrated by vacuum centrifugation and injected onto a Higgins (Mountain View, Calif.) C18 HAISIL column (2.1 mm×4 cm, 300 Å, 5 μm). The peptides were eluted with a gradient of acetonitrile/0.085% trifluoroacetic acid (TFA)* in 0.1% TFA/water, with the concentration of acetonitrile increasing from 0 to 9% (0 to 5 min), 9 to 36% (5 to 55 min), and 36 to 60% (55 to 62 min). Second dimension fractionations of selected first dimension (TFA) fractions were accomplished using the same gradient but with the substitution of heptafluorobutyric acid (HFBA) for TFA. A third dimension of RP-HPLC was achieved using an Eldex (Napa, Calif.) MicroPro pump, a homemade C18 microcapillary column and an Applied Biosystems model 785A UV absorbance detector. The column was made by packing a 27-cm bed of 10-μm C18 particles in a section of 285 μm o.d.×75 μm i.d. fused silica. […] In all RP-HPLC experiments, peptides were detected by monitoring UV absorbance at 214 nm.

T1 sequence (P04439 25-365): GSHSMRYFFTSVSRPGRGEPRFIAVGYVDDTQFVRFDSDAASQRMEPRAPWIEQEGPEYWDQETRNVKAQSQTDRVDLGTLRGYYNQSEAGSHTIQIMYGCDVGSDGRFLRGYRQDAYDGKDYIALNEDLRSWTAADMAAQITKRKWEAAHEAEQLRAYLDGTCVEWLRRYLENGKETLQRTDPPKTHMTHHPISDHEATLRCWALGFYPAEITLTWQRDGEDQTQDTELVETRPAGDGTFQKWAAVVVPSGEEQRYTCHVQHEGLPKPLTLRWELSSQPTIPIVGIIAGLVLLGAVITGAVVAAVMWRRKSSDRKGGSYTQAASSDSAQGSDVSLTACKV
T1 sequence (P61769 21-119 partner): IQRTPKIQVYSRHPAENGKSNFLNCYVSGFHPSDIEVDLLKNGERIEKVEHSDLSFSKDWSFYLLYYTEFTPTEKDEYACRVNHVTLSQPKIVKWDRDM

Row | Sequence | concentration at which the synthetic peptide is active in sensitizing C1R-A3 targets for lysis by VMM18 CTL [1] [pM] | binding to HLA-A3 [2]
1 | SQNFPGSQK (listed as Homo sapiens) | ≤ 10 | –
2 | RLSNRLLLR (listed as Homo sapiens) | ≤ 10 | binds to the class I MHC molecule, HLA-A3

From patent US7413894B2, “TAG-1 and TAG-2 proteins and uses thereof” (University of Virginia Patent Foundation, priority 2003, dated 2008)
